# Experimental data: publication PMC10066365, “Nemacol is a small molecule inhibitor of C. elegans vesicular acetylcholine transporter with anthelmintic potential” (Nature Communications, 2023)
# Several values for one entry are separate records, joined by “and”; a condition that tells them apart may be missing. Equal values may be shown once.
# Tests used:
# [1] = test system: Pristionchus pacificus; experiment: Pristionchus pacificus motor disruption dose-response on solid media, 1 h; conditions: for mean % any phene: any phenotype (coiled, jerky-Unc or paralyzed) at one hour, mean of three biological replicates; for rep 1 no phene / rep 1 paralyzed / rep 2 atypical locomotion / rep 2 coiled / rep 2 no phene / rep 2 paralyzed / rep 3 atypical locomotion / rep 3 no phene / rep 3 paralyzed / rep 1 atypical locomotion / rep 1 coiled / rep 3 coiled: count of 20 animals per trial, one hour
# Description: Locomotor phenotype analyses were done in 24-well plates with 1 mL of MYOB substrate (27.5 g Trizma HCl, 12 g Trizma Base, 230 g bacto tryptone, 10 g NaCl, 0.4 g cholesterol (95%)) seeded with 25 µL of OP50 Escherichia coli on each well. Each compound was added to the MYOB substrate before pouring to achieve the desired final concentrations of 30 µM or 60 µM after diffusion through the media. Synchronized young adult worms are transferred into each well using a platinum wire pick. A Leica MZ75 stereomicroscope was used to visualize the movement of worms on the solid substrate. The specific dominant locomotor phenotype (i.e. ‘Punc’, ‘paralyzed’, ‘coiler’ or ‘wild-type locomotion’) was scored after the touch on the head with a platinum wire over a ~3–5 s of observation. […] Coiled animals were not scored as paralyzed despite sometimes not responding to light touch.
# [2] = test system: Dirofilaria immitis L3/L4; experiment: Dirofilaria immitis L3/L4 motility assay (DiroImager, 72 h); conditions: Dirofilaria immitis L4
# [3] = test system: C. elegans; experiment: C. elegans motor phenotype scoring on solid media (Punc/jerky-unc, coiled, paralyzed), wild-type young adults; type: in vivo, Caenorhabditis elegans; conditions: for atypical locomotion (number of animals) / coiled (number of animals) / no phene (number of animals) / paralyzed (number of animals) / any phene: mean % fraction of young adults exhibiting any phenotype (coiled, jerky-Unc or paralyzed): one hour; for atypical locomotion (number of animals) / coiled (number of animals) / no phene (number of animals) / paralyzed (number of animals): young adults, 20 animals per trial, single technical replicate; for any phene: mean % fraction of young adults exhibiting any phenotype (coiled, jerky-Unc or paralyzed): mean of three biological replicates; for EC50: Caenorhabditis elegans, any motor phenotype after 1 h on solid media, ± 95% CI, read-out: C. elegans - motor disruption EC50
# [4] = test system: Dirofilaria immitis microfilariae; experiment: Dirofilaria immitis microfilariae immobility assay (DiroImager, 72 h); conditions: Dirofilaria immitis microfilariae
# In short: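 About 250 freshly purified microfilariae of the Missouri isolate per well in supplemented RPMI 1640, exposed to compound for 72 h. Motility scored by automated whole-plate optical imaging; medium with 1% DMSO as negative control.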
structure (smiles),measurement,setting,value
Fc1ccccc1N1CCN(C2CCCCCC2)CC1 [Nemacol-56],EC50,"[1]; Pristionchus pacificus, 1 h, read-out: P. pacificus motor disruption EC50",38.4 ± 4.7 µM
same,mean % any phene,[1]; conc 3.75,2.5%
same,rep 1 no phene,[1]; conc 3.75,20 and 18
same,rep 1 paralyzed,[1]; conc 3.75,0
same,rep 2 atypical locomotion,[1]; conc 3.75,0
same,rep 2 coiled,[1]; conc 3.75,0
same,rep 2 no phene,[1]; conc 3.75,20
same,rep 2 paralyzed,[1]; conc 3.75,0
same,rep 3 atypical locomotion,[1]; conc 3.75,0
same,rep 3 no phene,[1]; conc 3.75,20 and 19
same,rep 3 paralyzed,[1]; conc 3.75,0
same,mean % any phene,[1]; conc 15,0.8333%
same,rep 1 atypical locomotion,[1]; conc 15,0
same,rep 1 coiled,[1]; conc 15,0
same,rep 1 no phene,[1]; conc 15,20
same,rep 1 paralyzed,[1]; conc 15,0
same,rep 2 coiled,[1]; conc 15,0
same,rep 2 no phene,[1]; conc 15,19 and 20
same,rep 2 paralyzed,[1]; conc 15,0
same,rep 3 atypical locomotion,[1]; conc 15,0
same,rep 3 coiled,[1]; conc 15,0
same,rep 3 no phene,[1]; conc 15,20
same,rep 3 paralyzed,[1]; conc 15,0
same,mean % any phene,[1]; conc 60,85%
same,rep 1 atypical locomotion,[1]; conc 60,10
same,rep 1 coiled,[1]; conc 60,4 and 2
same,rep 1 no phene,[1]; conc 60,2
same,rep 1 paralyzed,[1]; conc 60,4 and 6
same,rep 2 no phene,[1]; conc 60,5 and 3
same,rep 3 atypical locomotion,[1]; conc 60,14 and 13
same,rep 3 coiled,[1]; conc 60,3 and 4
same,rep 3 no phene,[1]; conc 60,3
same,rep 3 paralyzed,[1]; conc 60,0
same,"% effect (motility), DIROIM L4",[2]; 10 µM,0%
same,"% effect (motility), DIROIM L4",[2]; 50 µM,15%
same,atypical locomotion (number of animals),[3]; 3.75uM,2 and 3 and 12 and 10
same,coiled (number of animals),[3]; 3.75uM,0
same,no phene (number of animals),[3]; 3.75uM,18 and 17 and 8 and 10
same,paralyzed (number of animals),[3]; 3.75uM,0
same,"any phene: mean % fraction of young adults exhibiting any phenotype (coiled, jerky-Unc or paralyzed)",[3]; 3.75uM,25.8333%
same,atypical locomotion (number of animals),[3]; 15uM,12 and 18 and 7 and 14 and 16
same,coiled (number of animals),[3]; 15uM,0 and 2
same,no phene (number of animals),[3]; 15uM,8 and 2 and 13 and 4
same,paralyzed (number of animals),[3]; 15uM,0 and 2
same,"any phene: mean % fraction of young adults exhibiting any phenotype (coiled, jerky-Unc or paralyzed)",[3]; 15uM,69.1667%
same,atypical locomotion (number of animals),[3]; 60uM,2 and 3 and 10 and 0
same,coiled (number of animals),[3]; 60uM,5 and 6 and 4 and 3 and 8
same,no phene (number of animals),[3]; 60uM,0
same,paralyzed (number of animals),[3]; 60uM,13 and 11 and 6 and 14 and 15 and 12
same,"any phene: mean % fraction of young adults exhibiting any phenotype (coiled, jerky-Unc or paralyzed)",[3]; 60uM,100%
same,EC50,[3],8 ± 3.3 µM
same,"% effect (motility), DIROIM MF",[4]; 0.016 µM,0%
same,"% effect (motility), DIROIM MF",[4]; 0.08 µM,0%
same,"% effect (motility), DIROIM MF",[4]; 0.4 µM,0%
same,"% effect (motility), DIROIM MF",[4]; 2 µM,0%
same,"% effect (motility), DIROIM MF",[4]; 10 µM,0%
c1cc(N2CCN(CC3CCC3)CC2)ccn1 [Nemacol-60],mean % any phene,[1]; conc 3.75,0%
same,rep 1 atypical locomotion,[1]; conc 3.75,0
same,rep 1 coiled,[1]; conc 3.75,0
same,rep 1 no phene,[1]; conc 3.75,20
same,rep 1 paralyzed,[1]; conc 3.75,0
same,rep 2 atypical locomotion,[1]; conc 3.75,0
same,rep 2 coiled,[1]; conc 3.75,0
same,rep 2 no phene,[1]; conc 3.75,20
same,rep 2 paralyzed,[1]; conc 3.75,0
same,rep 3 atypical locomotion,[1]; conc 3.75,0
same,rep 3 coiled,[1]; conc 3.75,0
same,rep 3 no phene,[1]; conc 3.75,20
same,rep 3 paralyzed,[1]; conc 3.75,0
same,mean % any phene,[1]; conc 15,0%
same,rep 1 atypical locomotion,[1]; conc 15,0
same,rep 1 coiled,[1]; conc 15,0
same,rep 1 no phene,[1]; conc 15,20
same,rep 1 paralyzed,[1]; conc 15,0
same,rep 2 atypical locomotion,[1]; conc 15,0
same,rep 2 coiled,[1]; conc 15,0
same,rep 2 no phene,[1]; conc 15,20
same,rep 2 paralyzed,[1]; conc 15,0
same,rep 3 atypical locomotion,[1]; conc 15,0
same,rep 3 coiled,[1]; conc 15,0
same,rep 3 no phene,[1]; conc 15,20
same,rep 3 paralyzed,[1]; conc 15,0
same,mean % any phene,[1]; conc 60,0%
same,rep 1 atypical locomotion,[1]; conc 60,0
same,rep 1 coiled,[1]; conc 60,0
same,rep 1 no phene,[1]; conc 60,20
same,rep 1 paralyzed,[1]; conc 60,0
same,rep 2 atypical locomotion,[1]; conc 60,0
same,rep 2 coiled,[1]; conc 60,0
same,rep 2 no phene,[1]; conc 60,20
same,rep 2 paralyzed,[1]; conc 60,0
same,rep 3 atypical locomotion,[1]; conc 60,0
same,rep 3 coiled,[1]; conc 60,0
same,rep 3 no phene,[1]; conc 60,20
same,rep 3 paralyzed,[1]; conc 60,0
same,"% effect (motility), DIROIM L4",[2]; 10 µM,0%
same,"% effect (motility), DIROIM L4",[2]; 50 µM,10%
same,atypical locomotion (number of animals),[3]; 3.75uM,0 and 2 and 3
same,coiled (number of animals),[3]; 3.75uM,0
same,no phene (number of animals),[3]; 3.75uM,20 and 18 and 17
same,paralyzed (number of animals),[3]; 3.75uM,0
same,"any phene: mean % fraction of young adults exhibiting any phenotype (coiled, jerky-Unc or paralyzed)",[3]; 3.75uM,4.167%
same,atypical locomotion (number of animals),[3]; 15uM,0 and 10 and 15
same,coiled (number of animals),[3]; 15uM,0
same,no phene (number of animals),[3]; 15uM,20 and 9 and 5
same,paralyzed (number of animals),[3]; 15uM,0 and 1
same,"any phene: mean % fraction of young adults exhibiting any phenotype (coiled, jerky-Unc or paralyzed)",[3]; 15uM,21.6667%
same,atypical locomotion (number of animals),[3]; 60uM,0 and 2 and 4 and 16 and 14
same,coiled (number of animals),[3]; 60uM,0
same,no phene (number of animals),[3]; 60uM,20 and 18 and 16 and 4 and 6
same,paralyzed (number of animals),[3]; 60uM,0
same,"any phene: mean % fraction of young adults exhibiting any phenotype (coiled, jerky-Unc or paralyzed)",[3]; 60uM,30%
same,EC50,[3],> 60 µM
same,"% effect (motility), DIROIM MF",[4]; 0.016 µM,0%
same,"% effect (motility), DIROIM MF",[4]; 0.08 µM,0%
same,"% effect (motility), DIROIM MF",[4]; 0.4 µM,0%
same,"% effect (motility), DIROIM MF",[4]; 2 µM,0%
same,"% effect (motility), DIROIM MF",[4]; 10 µM,0%
